From PubChem BioAssay (NCI)
Where “and” joins values, the source holds several entries; their conditions need not be identical. Equal values may be shown once.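 The compound was tested at five concentrations on cells cultured in 96-well plates, with a 48-hour exposure period. GI50: concentration for 50% inhibition of growth. TGI is the concentration that stops growth completely.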

Legend:
Experiment in all cases: inhibition of tumour cell growth, NCI panel, 48 h
OVCAR-4 ovarian = tested on: OVCAR-4 ovarian
DMS 273 small cell lung = tested on: DMS 273 small cell lung
M19-MEL melanoma = tested on: M19-MEL melanoma
MALME-3M melanoma = tested on: MALME-3M melanoma
HOP-92 NSCLC = tested on: HOP-92 NSCLC
DMS 114 small cell lung = tested on: DMS 114 small cell lung
K-562 leukemia = tested on: K-562 leukemia
XF 498 CNS = tested on: XF 498 CNS
NCI/ADR-RES ovarian = tested on: NCI/ADR-RES ovarian

Structure (SMILES)	TGI (OVCAR-4 ovarian) [µM]	TGI (DMS 273 small cell lung) [µM]	TGI (M19-MEL melanoma)	TGI (MALME-3M melanoma)	TGI (HOP-92 NSCLC)	TGI (DMS 114 small cell lung)	TGI (K-562 leukemia) [µM]	TGI (XF 498 CNS)	GI50 (OVCAR-4 ovarian)	TGI (NCI/ADR-RES ovarian) [µM]	GI50 (DMS 273 small cell lung)
CC(C)N(C(C)C)P(OCCC#N)OC1CC(n2cnc3c(=O)[nH]cnc32)OC1COC(=O)NCCCCCCNC(=O)OC(C)(C)c1ccc(-c2ccccc2)cc1 (configuration not stated)	38.2	32.1	42.2 µM	89.4 µM	75.7 µM	41.6 µM	37.5	–	–	–	–
c1ccc(CCn2cncn2)cc1	> 100	> 100	> 100 µM	> 100 µM	> 100 µM	> 100 µM	> 100	–	–	–	–
O=C1NC2(C=Cc3c(ccc4ccccc34)O2)Oc2ccccc21 (configuration not stated)	> 100	76.1	> 100 µM	> 100 µM	–	51 µM	> 100	> 100 µM	–	–	–
N#C/C(=C\c1ccccc1Br)C(=O)c1ccccc1	58.8	> 100	> 89.5 µM	> 100 µM	> 100 µM	> 100 µM	> 42.6	> 79.9 µM	–	–	–
CCCCCCCCCCSCC(CO)NC(=O)/C=C/c1c(C)[nH]c(=O)[nH]c1=O (configuration not stated)	4.01	> 50	14.8 µM and > 39.5 µM	6.28 µM and 2.78 µM	3.72 µM and > 20.3 µM	5.93 µM and 4.33 µM	> 50	2.19 µM and 3.61 µM	0.912 µM and 0.192 µM	> 50	1.97 µM and 4.58 µM
CC(=O)CC(=O)/C=C/c1cccs1	> 100	–	> 100 µM	> 100 µM	–	> 100 µM	> 100	–	–	–	–
CN(CCO)/N=N/c1[nH]ncc1C(N)=O	> 100	> 100	> 100 µM	> 100 µM	> 100 µM	> 100 µM	> 100	> 100 µM	–	> 100	–
O=C1C[C@H](c2ccc(O)c(O)c2)Oc2cc(O)cc(O)c21	> 100	> 100	> 100 µM	> 100 µM	> 100 µM	> 100 µM	> 100	–	–	–	–
COc1ccc(C2C(Cl)C(=O)N2NC(=O)Cc2ccccc2)cc1OC (configuration not stated)	> 100	> 100	> 100 µM	> 100 µM	–	> 100 µM	> 100	> 100 µM	–	–	–
c1ccc(C2[C@@H]3CCCc4ccccc4C3=NN2c2ccccc2)cc1 (some centres not stated)	> 100	–	> 100 µM	> 100 µM	–	> 100 µM	> 100	> 100 µM	–	–	–
CCN(CC)CCNc1ccc2ncn3c4cc(=O)ccc4c(O)c1c23	13.5	13.2	16.5 µM	14.9 µM	6.78 µM	18.1 µM	30	12.8 µM	–	–	–
